Experimental data published in the supplement of paper PMC10307832.

Columns and labels:
Assay in all cases: relative viability (nuclei count vs DMSO), 5 days (fraction); higher = more cells survive
TGX 221 + Vorinostat = compound: CC1=CN2C(=O)C=C(N=C2C(=C1)C(C)NC3=CC=CC=C3)N4CCOCC4 [TGX 221] + O=C(CCCCCCC(=O)Nc1ccccc1)NO [Vorinostat] (partner 1 µM)
In short: (§1)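 Cells from lung cancer lines were seeded into 1536-well plates and, one day later, dosed by pin tool. Treatments were either a single drug or a fixed dose of an anchor drug with five library-drug doses (not always all listed) in √10 steps. After 5 days, nuclei were stained in a one-step fixation (final 0.05% Triton X-100, 1% formaldehyde, 1 ug/ml Hoechst) and counted on 4× images, and relative viability is the treated-to-vehicle nuclei ratio, as the median of duplicate plates.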

[1] = compound: O=C(CCCCCCNC(=O)c1cnc(N(c2ccccc2)c2ccccc2)nc1)NO [Ricolinostat] + O=C(CCCCCCC(=O)Nc1ccccc1)NO [Vorinostat] (partner 1 µM)
In short: as §1

TGX 221 + Decitabine = compound: CC1=CN2C(=O)C=C(N=C2C(=C1)C(C)NC3=CC=CC=C3)N4CCOCC4 [TGX 221] + Nc1ncn([C@H]2C[C@H](O)[C@@H](CO)O2)c(=O)n1 [Decitabine] (partner 2 µM)
In short: as §1

TGX 221 + Crizotinib = compound: CC1=CN2C(=O)C=C(N=C2C(=C1)C(C)NC3=CC=CC=C3)N4CCOCC4 [TGX 221] + C[C@@H](Oc1cc(-c2cnn(C3CCNCC3)c2)cnc1N)c1c(Cl)ccc(F)c1Cl [Crizotinib] (partner 1 µM)
In short: as §1

Cell Line | relative viability (TGX 221 + Vorinostat; first compound 0.08 µM) | relative viability (TGX 221 + Vorinostat; first compound 0.253 µM) | relative viability (TGX 221 + Vorinostat; first compound 0.8 µM) | relative viability (TGX 221 + Vorinostat; first compound 2.53 µM) | relative viability (TGX 221 + Vorinostat; first compound 8 µM) | relative viability ([1]; first compound 0.08 µM) | relative viability ([1]; first compound 0.253 µM) | relative viability ([1]; first compound 0.8 µM) | relative viability ([1]; first compound 2.53 µM) | relative viability (TGX 221 + Decitabine; first compound 0.08 µM) | relative viability (TGX 221 + Decitabine; first compound 0.253 µM) | relative viability (TGX 221 + Decitabine; first compound 0.8 µM) | relative viability (TGX 221 + Decitabine; first compound 2.53 µM) | relative viability (TGX 221 + Decitabine; first compound 8 µM) | relative viability (TGX 221 + Crizotinib; first compound 0.08 µM) | relative viability (TGX 221 + Crizotinib; first compound 0.253 µM) | relative viability (TGX 221 + Crizotinib; first compound 0.8 µM) | relative viability (TGX 221 + Crizotinib; first compound 2.53 µM) | relative viability (TGX 221 + Crizotinib; first compound 8 µM)
NCI-H1755 | 0.677 | 0.681 | 0.775 | 0.718 | 0.667 | 0.665 | 0.715 | 0.673 | 0.484 | 0.723 | 0.657 | 0.655 | 0.631 | 0.632 | 0.873 | 0.863 | 0.827 | 0.752 | 0.607
NCI-H1915 | 0.436 | 0.486 | 0.489 | 0.437 | 0.554 | 0.468 | 0.51 | 0.467 | 0.326 | 0.254 | 0.255 | 0.256 | 0.257 | 0.257 | 0.864 | 0.83 | 0.942 | 0.9 | 0.813
NCI-H1944 | – | 0.547 | 0.488 | 0.476 | 0.488 | 0.493 | 0.539 | 0.488 | 0.422 | – | 0.449 | 0.442 | 0.443 | 0.389 | 1.07 | 1.03 | 1.02 | 1.09 | 0.863
NCI-H1975 | 0.749 | 0.656 | 0.689 | 0.718 | 0.607 | 0.655 | 0.671 | 0.566 | 0.609 | 0.542 | 0.386 | 0.385 | 0.362 | 0.39 | 0.985 | 0.878 | 0.996 | 0.935 | 0.803
NCI-H1993 | 0.821 | 0.611 | 0.742 | 0.788 | 0.724 | 0.551 | 0.825 | 0.693 | – | 0.593 | 0.693 | 0.663 | 0.598 | 0.547 | 0.778 | 0.815 | 0.951 | 0.807 | 0.774
